Legend:
solid tumors = details: NCT02719977, solid tumors in humans; cited from earlier work
hERG = hERG (Homo sapiens, UniProt Q12809); test: hERG cardiotoxicity assay (patch clamp, hERG stably expressed HEK 293 cell line); format: cell-based; details: 5 doses applied cumulatively
Procedure: • 1) The hERG stably expressed HEK 293 cell line (Cat# K1236) was purchased from Invitrogen. Cells were cultured in a medium consisting of 85% DMEM, 10% FBS, 0.1 mM NEAA, 25 mM HEPES, 100 U/mL penicillin-streptomycin, 5 µg/mL Blasticidin, and 400 µg/mL Geneticin. Cells were passaged approximately three times a week using TrypLE™ Express and maintained at ~40% to ~80% confluency. Before assay, cells were placed on coverslips with 5×10^5 cells per 6-cm cell culture dish and induced with 1 µg/mL doxycycline for 48 hours. • 2) The coverslip was removed from the cell culture dish and placed on the microscope stage. A suitable cell was located using a 10× objective. The tip of the electrode was located under the microscope using the 10× objective, and the focus was adjusted to the plane of the cell. Once the tip was in focus, the coarse control of the manipulator was used to advance the electrode downward toward the cell while moving the objective to keep the tip in focus. When directly above the cell, the objective was switched to 40× objective, and the fine control of the manipulator was used to approach the cell surface in small steps. • 3) A blank control was first performed to establish a baseline. […] In the presence of the test compounds, the hERG current was recorded for approximately 5 minutes to reach a steady state, followed by capturing 5 scans. For dose-response testing, 5 doses of the test compounds were cumulatively applied to the cells from low to high concentrations. The positive control, dofetilide at a concentration of 150 nM, was applied to each cell, and the hERG current was measured in the test compounds at the highest concentration as a negative control to normalize the percentage of inhibition. To ensure good performance of the cultured cells and operations, cells from the same batch were also tested with 5 doses of dofetilide. Table 4. hERG Toxicity Assay Results

MDA-MB-436 = test: Cell activity assay (CellTiterGlo, 6 days), BRCA1 gene-deficient MDA-MB-436 cells; format: cell-based; details: Homo sapiens, 144 h, BRCA1 gene-deficient MDA-MB-436, 6 days incubation
Procedure: (§1) • (1) Compound Treatment • a) Preparation of Stock Solutions of Compounds Test compounds were dissolved in DMSO at a concentration of 10 mM or 5 mM, and Olaparib was dissolved in DMSO at a concentration of 10 mM. • b) Compound Storage All compounds dissolved in DMSO were stored in a desiccator at room temperature for short-term storage and transferred to a -20°C refrigerator for long-term storage. • c) Preparation of Working Concentrations of Compounds
(§2) Test compounds were serially diluted in DMSO at a 3-fold gradient to prepare 10 concentration gradients, starting from 10 µM.
(§3) Olaparib was serially diluted in DMSO at a 3-fold gradient to prepare 10 concentration gradients, starting from 10 µM.
(§4) The 384-well plate loaded with the compounds was centrifuged at 1000 rpm for 1 minute.
(§5) • a) Cells were added to the culture medium and incubated in a cell culture incubator at 37°C with 5% CO2. • b) 40 µL of BRCA1- or BRCA2-deficient cells were added to a 384-well plate and incubated overnight at 37°C with 5% CO2. • c) The test compounds were prepared at different concentration gradients on the master plate, and 80 nL of the test compounds and Olaparib were taken from the master plate and added to the 384-well plate containing cells, and incubated at 37°C with 5% CO2 for 6 days. • d) CellTiterGlo (30 µL per well) was added to the 384-well plate, and after incubation at room temperature in the dark for 30 minutes, measurement was performed using an Envision plate reader.
(§6) • a) GraphPad Prism software was used to calculate the ICso and plot the activity curves as a function of concentration. • b) The inhibition of cell activity by the compounds was calculated using the following formula: % Inhibition = [1−(Cmpd−Blank)/(DMSO−Blank)]* 100 [formula]

DLD1 BRCA2^-/- = test: Cell activity assay (CellTiterGlo, 6 days), BRCA2 gene knockout DLD1 cancer cells; format: cell-based; details: Homo sapiens, DLD-1, 144 h, 6 days incubation
Procedure: as §1, §2, §3, §4, §5, §6

UWB1.289 Cells = test: Cell activity assay (CellTiterGlo, 6 days), BRCA1 gene-deficient ovarian cancer cells UWB1.289; format: cell-based; details: UWB1289, 144 h, BRCA1 gene-deficient ovarian cancer cells UWB1.289, 6 days incubation
Procedure: as §1, §2, §3, §4, §5, §6

hERG, sequence (Q12809 whole entry): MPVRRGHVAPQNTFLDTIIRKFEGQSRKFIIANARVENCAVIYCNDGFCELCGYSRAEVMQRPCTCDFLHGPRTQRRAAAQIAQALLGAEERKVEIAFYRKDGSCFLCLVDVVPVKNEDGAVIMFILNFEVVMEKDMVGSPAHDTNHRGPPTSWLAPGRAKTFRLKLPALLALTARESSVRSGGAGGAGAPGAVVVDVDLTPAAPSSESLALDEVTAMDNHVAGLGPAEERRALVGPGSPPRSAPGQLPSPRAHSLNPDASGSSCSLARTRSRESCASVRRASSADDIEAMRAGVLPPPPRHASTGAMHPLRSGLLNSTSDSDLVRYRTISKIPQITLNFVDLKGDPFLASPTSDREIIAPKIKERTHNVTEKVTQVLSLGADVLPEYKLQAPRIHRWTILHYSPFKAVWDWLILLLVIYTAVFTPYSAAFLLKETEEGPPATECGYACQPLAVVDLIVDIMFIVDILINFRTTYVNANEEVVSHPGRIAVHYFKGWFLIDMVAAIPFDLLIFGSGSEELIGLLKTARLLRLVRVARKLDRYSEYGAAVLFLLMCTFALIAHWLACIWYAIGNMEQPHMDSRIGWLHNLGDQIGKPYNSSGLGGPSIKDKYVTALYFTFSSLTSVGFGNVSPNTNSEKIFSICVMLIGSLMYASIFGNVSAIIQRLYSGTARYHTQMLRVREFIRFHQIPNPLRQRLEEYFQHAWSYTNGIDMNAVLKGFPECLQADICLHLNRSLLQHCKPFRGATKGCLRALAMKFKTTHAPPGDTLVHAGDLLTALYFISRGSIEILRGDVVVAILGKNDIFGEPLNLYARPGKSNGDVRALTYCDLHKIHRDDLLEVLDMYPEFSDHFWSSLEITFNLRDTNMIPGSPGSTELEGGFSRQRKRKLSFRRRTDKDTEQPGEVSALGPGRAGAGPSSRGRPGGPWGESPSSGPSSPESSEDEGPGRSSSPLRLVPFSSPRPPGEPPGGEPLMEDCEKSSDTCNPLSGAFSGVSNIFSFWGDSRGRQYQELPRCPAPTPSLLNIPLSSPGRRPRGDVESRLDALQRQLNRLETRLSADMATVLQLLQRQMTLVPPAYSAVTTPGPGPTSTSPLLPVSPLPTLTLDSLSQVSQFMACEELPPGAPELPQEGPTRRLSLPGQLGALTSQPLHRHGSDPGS

SMILES | adverse effects observed (solid tumors) | IC50 (hERG) | IC50 (MDA-MB-436) | IC50 (DLD1 BRCA2^-/-) | IC50 (UWB1.289 Cells)
Cc1cnc(CNC(=O)c2c(=O)c3ccc(N4CCCN(C)CC4)nc3n3c2sc2ccccc23)cn1 [CX-5461] | phototoxicity, neutropenia, acral erythema, and nausea | 5060 nM | 10 nM |  | 
CN1CCCN(c2ccc3c(=O)c(C(=O)NCCN4CCC4)c4sc5ccccc5n4c3n2)CC1 [Compound C] |  |  |  | 4.8 nM | 4.9 nM
CN1CCCN(c2ccc3c(=O)c(C(=O)NCCN4CCCC4)c4sc5ccccc5n4c3n2)CC1 [Compound D] |  |  |  | 4.3 nM | 5.8 nM
CNC(=O)c1c(=O)c2ccc(N3CCCN(C)CC3)nc2n2c1sc1ccccc12 [Compound E] |  |  | 7.7 nM | 11 nM | 39.8 nM
CN1CCCN(c2ccc3c(=O)c(C(=O)NC4CC4)c4sc5ccccc5n4c3n2)CC1 [Compound F] |  |  |  | 17.2 nM | 40.6 nM
CN1CCCN(c2ccc3c(=O)c(C(=O)NCc4ccc(=O)[nH]n4)c4sc5ccccc5n4c3n2)CC1 [Compound G-1] |  | > 30000 nM |  | 32.7 nM | 40.4 nM
CN1CCCN(c2ccc3c(=O)c(C(=O)NCc4n[nH]c(=O)c5ccccc45)c4sc5ccccc5n4c3n2)CC1 [Compound G-2] |  | > 10000 nM |  |  | 
O=C(c1cc(Cc2n[nH]c(=O)c3ccccc23)ccc1F)N1CCN(C(=O)C2CC2)CC1 [Olaparib, reference compound] |  |  | 240 nM |  | 716 nM
